From ChEMBL document CHEMBL2448688, “Selection and optimization of hits from a high-throughput phenotypic screen against Trypanosoma cruzi. Exported from HEOS 25-Oct-2013. See also related datasets CHEMBL3137440 and CHEMBL3137386”
In brackets after ≈: the same amount, converted by molar mass. Several values for one entry are separate records, joined by “and”; a condition that tells them apart may be missing. Equal entries are not always repeated.

What was measured:
[1] = test system: Trypanosoma brucei rhodesiense; test: (§1) DNDI: HAT in Vitro; assay type: functional, organism-based, ATCC 30027
Trypanosoma cruzi [2] = test: (§2) DNDI: Chagas in Vitro; assay type: functional, organism-based, Tulahuen C4 (LacZ)
[3] = DNDI: Cytotoxicity in vitro, against human lung fibroblast (MRC-5) cells; settings: MRC-5 cells (lung fibroblasts)
[4] = DNDI: Cytotoxicity in vitro, against rat skeletal myoblast (L-6) cells; settings: L-6 cells (skeletal myoblasts), IC50
Leishmania infantum [5] = test: DNDI: Leish (macro) in Vitro; assay type: functional, organism-based, MHOM/MA(BE)/67
Trypanosoma cruzi [6] = test: as §2; assay type: functional, Tulahuen C4 (LacZ)
[7] = human, microsomes
[8] = DNDI: Solubility in 0.01M HCl at pH 2 determined by nephelometry; settings: for solubility kinetic: 0.01M HCl, pH 2, Kinetic
[9] = human, microsomes; remark: listed apart in the source
[10] = human, microsomes; remark: listed apart in the source
[11] = DNDI: Lipophilicity (gLogD) at pH 7.4; settings: buffer, pH 7.4, logD
[12] = DNDI: Solubility in phosphate buffer at pH 6.5 determined by nephelometry; settings: for solubility kinetic: phosphate buffer, pH 6.5, Kinetic
in vitro [13] = settings: human, microsomes, t (1 / 2)
in vitro [14] = settings: human, microsomes
[15] = DNDI: Lipophilicity (gLogD) at pH 3; settings: buffer, pH 3, logD
in vitro [16] = settings: mouse, microsomes
[17] = DNDI: Metabolism; assay type: ADME, Microsome; settings: rat, microsomes
in vitro [18] = settings: rat, microsomes
in vitro [19] = settings: rat, hepatocytes
in vitro [20] = settings: rat, microsomes; remark: listed apart in the source
in vitro [21] = settings: mouse, microsomes; remark: listed apart in the source
in vitro [22] = settings: human, microsomes, EH
Leishmania donovani = test: DNDI: Leish macro in vitro at 10 uM; assay type: functional; settings: MHOM/ET/67/L82
Cytochrome P450 3A4 = Cytochrome P450 3A4 (Homo sapiens, UniProt P08684); test: DNDI: Human CYP3A4 inhibition determined using 6b-hydroxylation of testosterone
Leishmania infantum [23] = test: DNDI: Leish In Vivo - % inhibition and MSD at 50 mg/kg, 5 days 2x; assay type: functional, MHOM/MA(BE)/67 Hamster-Early curative model po
[24] = test system: Trypanosoma brucei brucei; test: DNDI: HAT in vivo at 50 mg/kg, 4 adm days; assay type: functional, EATRO 110 po
[25] = test system: Trypanosoma brucei brucei; test: as §1; assay type: functional, organism-based; settings: SBRI 427
[26] = Trypanosoma cruzi, Tulahuen C4 (LacZ)

Chain of Cytochrome P450 3A4 (P08684 whole entry): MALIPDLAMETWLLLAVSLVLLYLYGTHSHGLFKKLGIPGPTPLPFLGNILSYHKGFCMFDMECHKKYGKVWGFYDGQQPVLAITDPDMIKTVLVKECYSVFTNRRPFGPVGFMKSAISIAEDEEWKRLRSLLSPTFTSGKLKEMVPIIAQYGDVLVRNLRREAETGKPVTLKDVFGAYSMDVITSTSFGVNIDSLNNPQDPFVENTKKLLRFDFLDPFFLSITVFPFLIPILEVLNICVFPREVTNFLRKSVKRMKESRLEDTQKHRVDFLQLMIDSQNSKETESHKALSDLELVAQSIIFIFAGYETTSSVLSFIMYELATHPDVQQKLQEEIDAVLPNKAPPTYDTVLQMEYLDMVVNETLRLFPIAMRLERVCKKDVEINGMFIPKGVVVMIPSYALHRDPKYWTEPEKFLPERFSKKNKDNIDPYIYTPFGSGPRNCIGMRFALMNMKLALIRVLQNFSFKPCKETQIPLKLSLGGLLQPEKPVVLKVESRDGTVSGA

## O=C(Nc1cc(C(F)(F)F)ccc1-n1ccnc1)c1cnc(-c2ccccc2)nc1
[1]; Trypanosoma brucei, ATCC 30027
  IC50: > 10000 nM
Trypanosoma cruzi [2]; [26]
  IC50: > 100 nM
[3]
  IC50: > 64000 nM
[4]
  IC50: > 100000 nM
Leishmania infantum [5]; Leishmania infantum, MHOM/MA(BE)/67
  IC50: > 64000 nM
Trypanosoma cruzi [6]; [26]
  IC90: > 100 nM

## Cl.NCC(=O)N(Cc1cccnc1)c1cc(F)cc(-c2nc3ccccc3s2)c1
[7]
  t (1 / 2): 58 min and 26.3 min
[8]
  solubility kinetic: 57.5 µg/mL
[8]; buffer, pH 2
  Kinetic: > 100 µg/mL
[9]
  CLint in vitro: 66 µL/min/mg and 30 µL/min/mg
Trypanosoma cruzi [2]; [26]
  IC50: 49 nM
[4]
  IC50: > 100000 nM
[10]
  EH: 0.54 none
[11]
  chromatographic logD: 2.29
Trypanosoma cruzi [6]; [26]
  IC90: 125 nM
[12]; buffer, pH 6.5
  Kinetic: > 100 µg/mL
[12]
  solubility kinetic: 53 µg/mL

## CC(=O)N(Cc1cccnc1)c1ccc(-c2nc3ccccc3s2)cc1
[7]
  t (1 / 2): 24 min
In vitro [13]
  half-life: 17.6 min
[8]
  solubility kinetic: 71 µg/mL (≈ 198 µM)
In vitro [14]
  microsomal CLint: 98.3 µL/min/mg
[9]
  CLint in vitro: 72 µL/min/mg
[10]
  EH: 0.74 none
[15]
  chromatographic logD: 2.18
[11]
  chromatographic logD: > 3.94
[12]
  solubility kinetic: 11.9 µg/mL (≈ 33 µM)

## CCN(c1ccccc1)S(=O)(=O)c1ccc(NC(=O)CN(C)C2CCN(C)CC2)c(Cl)c1.Cl
[1]; Trypanosoma brucei, ATCC 30027
  IC50: 1420 nM
In vitro [13]
  half-life: 10 min
[8]
  solubility kinetic: > 100 µg/mL
In vitro [14]
  microsomal CLint: 169 µL/min/mg
[3]
  IC50: 40600 nM
[15]
  chromatographic logD: 2.9
[11]
  chromatographic logD: 4.4
Leishmania infantum [5]
  IC50: 11300 nM and 24000 nM
[12]
  solubility kinetic: > 100 µg/mL

## CO/N=C(\C)c1ccc(-n2ccnc2)c(NC(=O)c2cnc(-c3ccccc3)cn2)c1
In vitro [13]
  half-life: 58 min
[8]
  solubility kinetic: 25 µg/mL (≈ 60.6 µM)
In vitro [16]
  half-life: 61 min
[17]
  CLblood: 38 mL/min/kg
In vitro [14]
  microsomal CLint: 30 µL/min/mg
In vitro [18]
  half-life: 35 min
Trypanosoma cruzi [2]; [26]
  IC50: 2.53 nM
[4]
  IC50: 58700 nM
[15]
  chromatographic logD: 2.6
[11]
  chromatographic logD: 3.9
Trypanosoma cruzi [6]; [26]
  IC90: 8.9 nM
[12]
  solubility kinetic: < 1.6 µg/mL
In vitro [19]
  CLhep predicted: 32.3 mL/min/kg
In vitro [20]
  microsomal CLint: 50 µL/min/mg
In vitro [21]
  microsomal CLint: 29 µL/min/mg

## CS(=O)(=O)c1ccc(-n2ccnc2)c(NC(=O)c2cnc(-c3ccccc3)nc2)c1
[1]; Trypanosoma brucei, ATCC 30027
  IC50: > 10000 nM
In vitro [13]
  half-life: > 250 min
[8]
  solubility kinetic: 50 µg/mL (≈ 119 µM)
In vitro [14]
  microsomal CLint: < 7 µL/min/mg
Trypanosoma cruzi [2]; [26]
  IC50: 90 nM
In vitro [22]
  hepatic extraction ratio: < 0.28
[4]
  IC50: > 100000 nM
[15]
  chromatographic logD: 1.7
[11]
  chromatographic logD: 2.3
Trypanosoma cruzi [6]; [26]
  IC90: > 100 nM
[12]
  solubility kinetic: 12.5 µg/mL (≈ 29.8 µM)
Leishmania donovani
  inhibition at 10 µM: 48.2%
Cytochrome P450 3A4
  IC50: > 20000 nM

## CN1CCC(NCC(O)COc2ccc3cc(Br)ccc3c2)CC1 (stereo not drawn)
[1]
  IC50: 28 nM and 74.5 nM and 57 nM
Leishmania infantum [23]
  % inhibition in bone-marrow: 41.4%
  % inhibition in liver: 26.8%
  % inhibition in spleen: 44.9%
[24]
  MSD: 7 days
Trypanosoma cruzi [2]
  IC50: 853 nM and 3660 nM and 1930 nM
[25]
  IC50: 53 nM
Leishmania infantum [5]
  IC50: 426 nM and 198 nM and 500 nM
Trypanosoma cruzi [6]
  IC90: 5670 nM and > 1000 nM and 8200 nM

## CCN(c1ccccc1)S(=O)(=O)c1ccc(Cl)c(NC(=O)c2ccc3c(c2)CCNC3)c1
[1]; Trypanosoma brucei, ATCC 30027
  IC50: 604 nM
In vitro [13]
  half-life: 5.2 min
[8]
  solubility kinetic: 95.9 µg/mL (≈ 204 µM)
In vitro [14]
  microsomal CLint: 334 µL/min/mg
Trypanosoma cruzi [2]; [26]
  IC50: > 1000 nM
In vitro [22]
  hepatic extraction ratio: 0.943
[3]
  IC50: 29400 nM
[4]
  IC50: 19900 nM
Leishmania infantum [5]
  IC50: 2160 nM and 8000 nM
Trypanosoma cruzi [6]; [26]
  IC90: > 1000 nM
[12]
  solubility kinetic: 14.5 µg/mL (≈ 30.8 µM)
Cytochrome P450 3A4
  IC50: 5830 nM

## N#Cc1ccc(-n2ccnc2)c(NC(=O)c2cnc(-c3ccccc3)nc2)c1
[1]; Trypanosoma brucei, ATCC 30027
  IC50: > 10000 nM
In vitro [13]
  half-life: 113 min
[8]
  solubility kinetic: 50 µg/mL (≈ 136 µM)
In vitro [14]
  microsomal CLint: 15 µL/min/mg
Trypanosoma cruzi [2]
  IC50: 84 nM
Trypanosoma cruzi [2]; [26]
  IC50: > 100 nM
In vitro [22]
  hepatic extraction ratio: 0.46
[4]
  IC50: > 100000 nM
[15]
  chromatographic logD: 1.9
[11]
  chromatographic logD: 2.7
Trypanosoma cruzi [6]; [26]
  IC90: > 100 nM
[12]
  solubility kinetic: 3.1 µg/mL (≈ 8.46 µM)
Leishmania donovani
  inhibition at 10 µM: 53.5%
Cytochrome P450 3A4
  IC50: > 20000 nM
